Data taken from ChEMBL document CHEMBL1156824, “Physicochemical space for optimum oral bioavailability: contribution of human intestinal absorption and first-pass elimination” (J Med Chem, 2010).

Key:
clinical [1] = details: human, in vivo
Homo sapiens [2] = organism: Homo sapiens; assay: Fraction escaping hepatic elimination in human; details: in vivo
Homo sapiens [3] = organism: Homo sapiens; assay: Fraction absorbed in human; details: in vivo
Homo sapiens [4] = assay: Oral bioavailability in human; details: in vivo
Homo sapiens [5] = organism: Homo sapiens; assay: Fraction escaping gut-wall elimination in human; details: in vivo
Homo sapiens [6] = organism: Homo sapiens; assay: Hepatic clearance in human; details: in vivo
clinical [7] = details: human, in vivo; remark: listed apart in the source
[8] = Volume of distribution at steady state in human; details: in vivo
Plasma = assay: Fraction unbound in human plasma

| Compound | CL renal (clinical [1]) [mL/min/kg] | Fh (Homo sapiens [2]) | CL (Homo sapiens [6]) [mL/min/kg] | Vd [8] [L/kg] | other results |
| --- | --- | --- | --- | --- | --- |
| Clc1ccc2nsnc2c1NC1=NCCN1 [TIZANIDINE] | 0.3 | 0.54 | 10.7 | – | Fa (Homo sapiens [3]): 1; F_fraction (Homo sapiens [4]): 0.21; Fg (Homo sapiens [5]): 0.39 |
| C[C@@H]1[C@H](O)[C@@H](C)/C=C/C=C/C=C/C=C/C=C/C=C/C=C/[C@H](O[C@@H]2O[C@H](C)[C@@H](O)[C@H](N)[C@@H]2O)C[C@@H]2O[C@](O)(C[C@@H](O)C[C@@H](O)[C@H](O)CC[C@@H](O)C[C@@H](O)CC(=O)O[C@H]1C)C[C@H](O)[C@H]2C(=O)O [AMPHOTERICIN B] | 0.0138 | – | 0.4 | – | clearance (clinical [7]): 0.46 mL/min/kg |
| O=C1NC(=O)C(c2ccccc2)(c2ccccc2)N1 [PHENYTOIN] | 0.0074 | 0.98 | 0.4 | – | clearance (clinical [7]): 0.37 mL/min/kg |
| O=P1(N(CCCl)CCCl)NCCCO1 (stereo not given) [CYCLOPHOSPHAMIDE ANHYDROUS] | 0.1 | 0.96 | 1 | – | Fa (Homo sapiens [3]): 0.9; F_fraction (Homo sapiens [4]): 0.74; Fg (Homo sapiens [5]): 0.86 |
| Nc1nc(O)c2ncn(COC(CO)CO)c2n1 [GANCICLOVIR] | – | – | 0.5 | 1 | F_fraction (Homo sapiens [4]): 0.09 |
| CNC(=O)Oc1ccc2c(c1)[C@]1(C)CCN(C)[C@@H]1N2C [PHYSOSTIGMINE] | 16.5 | – | 5.5 | 0.66 | clearance (clinical [7]): 22 mL/min/kg; F_fraction (Homo sapiens [4]): 0.01 |
| Nc1nnc(-c2cccc(Cl)c2Cl)c(N)n1 [LAMOTRIGINE] | 0.042 | – | 0.6 | – | clearance (clinical [7]): 0.6 mL/min/kg; F_fraction (Homo sapiens [4]): 0.98 |
| CN1[C@@H]2CC[C@H]1C[C@@H](OC(=O)C(CO)c1ccccc1)C2 (stereo not given in full) [ATROPINE] | – | 0.86 | – | – | Fa (Homo sapiens [3]): 0.98; Fg (Homo sapiens [5]): 0.59 |
| CCN1CCCC1CNC(=O)c1cc(S(N)(=O)=O)ccc1OC (stereo not given) [SULPIRIDE] | – | – | 0.1 | 2.72 | F_fraction (Homo sapiens [4]): 0.27 |
| CC(C)n1c(/C=C/C(O)CC(O)CC(=O)O)c(-c2ccc(F)cc2)c2ccccc21 (stereo not given) [FLUVASTATIN] | – | 0.3 | – | – | – |
| O=[N+]([O-])O[C@@H]1CO[C@H]2[C@@H]1OC[C@@H]2O [ISOSORBIDE MONONITRATE] | – | – | 1.9 | 0.7 | – |
| O=C1Cc2cc(CCN3CCN(c4nsc5ccccc45)CC3)c(Cl)cc2N1 [ZIPRASIDONE] | 0.1 | – | 5 | 1 | – |
| Cc1nnc2n1-c1ccc(Cl)cc1C(c1ccccc1)=NC2 [ALPRAZOLAM] | 0.1 | – | 0.6 | 0.8 | – |
| CNCCC=C1c2ccccc2CCc2ccccc21 [NORTRIPTYLINE] | – | 0.57 | 9.8 | – | Fa (Homo sapiens [3]): 1; F_fraction (Homo sapiens [4]): 0.51; Fg (Homo sapiens [5]): 0.89 |
| CN(C)C(=N)N=C(N)N [METFORMIN] | – | 1 | – | – | – |
| CC(C)NCC(O)COc1ccc(CC(N)=O)cc1 (stereo not given) [ATENOLOL] | – | 1 | – | – | Fg (Homo sapiens [5]): 1 |
| CC[C@H](C)C(=O)O[C@H]1C[C@@H](C)C=C2C=C[C@H](C)[C@H](CC[C@@H]3C[C@@H](O)CC(=O)O3)[C@H]21 [LOVASTATIN] | 0.7 | 0.72 | 6.5 | – | – |
| CNC(=C[N+](=O)[O-])NCCSCc1csc(CN(C)C)n1 [NIZATIDINE] | – | – | 2.5 | 1 | – |
| CCCCCN(CCCOC)C(=O)C(CCC(=O)O)NC(=O)c1ccc(Cl)c(Cl)c1 (stereo not given) [LOXIGLUMIDE] | 0.022 | – | 1 | – | clearance (clinical [7]): 1 mL/min/kg |
| CN1Cc2c(N)cccc2C(c2ccccc2)C1 (stereo not given) [NOMIFENSINE] | – | – | 9.5 | 6 | – |

| Compound | CL renal (clinical [1]) [mL/min/kg] | Fh (Homo sapiens [2]) | CL (Homo sapiens [6]) [mL/min/kg] | Vd [8] [L/kg] | other results |
| --- | --- | --- | --- | --- | --- |
| GENTAMICIN | – | – | 0.3 | – | Fu (Plasma): 1 |
| Cc1ncc([N+](=O)[O-])n1CCO [METRONIDAZOLE] | 0.2 | – | 0.7 | 0.4 | – |
| COc1cc([C@@H]2c3cc4c(cc3[C@@H](O[C@@H]3O[C@@H]5CO[C@@H](C)O[C@H]5[C@H](O)[C@H]3O)[C@H]3COC(=O)[C@H]23)OCO4)cc(OC)c1O [ETOPOSIDE] | 0.2 | 0.99 | 0.3 | – | clearance (clinical [7]): 0.5 mL/min/kg |
| CN/C(=N/CCSCc1nc[nH]c1C)NC#N [CIMETIDINE] | – | 0.99 | 0.2 | – | Fa (Homo sapiens [3]): 0.68; F_fraction (Homo sapiens [4]): 0.68 |
| Cc1cc(NS(=O)(=O)c2ccc(N)cc2)no1 [SULFAMETHOXAZOLE] | – | 0.99 | – | – | Fa (Homo sapiens [3]): 1; Fg (Homo sapiens [5]): 1.01 |
| Nc1ccn([C@H]2CC[C@@H](CO)O2)c(=O)n1 [ZALCITABINE] | 4.5 | 0.95 | 1.1 | – | – |
| C[C@@H](O)[C@H]1C(=O)N2C(C(=O)O)=C(SCCN=CN)C[C@H]12 [IMIPENEM ANHYDROUS] | 1.5 | – | 1.5 | – | clearance (clinical [7]): 3 mL/min/kg |
| CC(C)c1nc(CN(C)C(=O)N[C@H](C(=O)N[C@@H](Cc2ccccc2)C[C@H](O)[C@H](Cc2ccccc2)NC(=O)OCc2cncs2)C(C)C)cs1 [RITONAVIR] | 0.042 | – | 1.2 | – | clearance (clinical [7]): 1.2 mL/min/kg |
| CC1=C(C(=O)O)N2C(=O)[C@@H](NC(=O)[C@H](N)c3ccccc3)[C@H]2SC1 [CEPHALEXIN ANHYDROUS] | – | – | – | – | Fg (Homo sapiens [5]): 0.91 |
| CC(=O)Nc1ccc(O)cc1 [ACETAMINOPHEN] | – | – | – | 1 | – |
| CN1CCN(c2c(F)cc3c(=O)c(C(=O)O)cn(CCF)c3c2F)CC1 [FLEROXACIN] | – | – | 0.9 | 1.3 | – |
| CCN1CCCC1CNC(=O)c1cc(S(=O)(=O)CC)c(N)cc1OC (stereo not given) [AMISULPRIDE] | – | – | 3.4 | 5.8 | – |
| O=C(O)P(=O)(O)O [FOSCARNET] | – | – | 0.4 | 0.5 | – |
| O=C(O)c1cc(/N=N/c2ccc(O)c(C(=O)O)c2)ccc1O [OLSALAZINE] | 0.3 | – | 0.9 | 0.07 | – |
| CCCCc1oc2ccccc2c1C(=O)c1cc(I)c(OCCN(CC)CC)c(I)c1 [AMIODARONE] | – | 0.92 | – | – | Fa (Homo sapiens [3]): 1; Fg (Homo sapiens [5]): 0.71 |
| CCCc1nc(C)c2c(=O)[nH]c(-c3cc(S(=O)(=O)N4CCN(CC)CC4)ccc3OCC)nn12 | – | – | – | 3 | – |
| CC(C(=O)O)c1ccc(C(=O)c2cccs2)cc1 (stereo not given) [SUPROFEN] | 0.0357 | – | 0.7 | 0.04 | – |
| CN1[C@@H]2C[C@@H](OC(=O)[C@H](CO)c3ccccc3)C[C@H]1[C@@H]1O[C@@H]12 [SCOPOLAMINE] | – | 0.35 | – | – | Fg (Homo sapiens [5]): 0.82 |
| CC(C)NCC(O)COc1ccc(CCOCC2CC2)cc1 (stereo not given) [BETAXOLOL] | – | 0.88 | 2.7 | – | Fa (Homo sapiens [3]): 1; F_fraction (Homo sapiens [4]): 0.89; Fg (Homo sapiens [5]): 1.01 |
| c1ccc2c(c1)OCC(C1=NCCN1)O2 (stereo not given) [IDAZOXAN] | – | – | 10 | – | clearance (clinical [7]): 10 mL/min/kg |

| Compound | CL renal (clinical [1]) [mL/min/kg] | Fh (Homo sapiens [2]) | CL (Homo sapiens [6]) [mL/min/kg] | Vd [8] [L/kg] | other results |
| --- | --- | --- | --- | --- | --- |
| CN1CCC[C@H]1c1cccnc1 [NICOTINE] | – | 0.35 | 15 | – | Fa (Homo sapiens [3]): 1; F_fraction (Homo sapiens [4]): 0.3; Fg (Homo sapiens [5]): 0.86 |
| CNC[C@H](O)CC12CCC(c3ccccc31)c1ccccc12 [LEVOPROTILINE] | 0.2 | – | 12.1 | – | clearance (clinical [7]): 12.3 mL/min/kg |
| CC(C)(C)NCC(O)c1ccc(O)c(CO)c1 (stereo not given) [ALBUTEROL] | – | 0.88 | – | – | – |
| CO[C@H]1/C=C/O[C@@]2(C)Oc3c(C)c(O)c4c(c3C2=O)C2=NC3(CCN(CC(C)C)CC3)NC2=C(NC(=O)/C(C)=C\C=C\[C@H](C)[C@H](O)[C@@H](C)[C@@H](O)[C@@H](C)[C@H](OC(C)=O)[C@@H]1C)C4=O [RIFABUTIN] | – | 0.91 | 2 | – | F_fraction (Homo sapiens [4]): 0.2 |
| COc1cc(Cc2cnc(N)nc2N)cc(OC)c1OC [TRIMETHOPRIM] | – | 0.95 | – | – | Fa (Homo sapiens [3]): 0.97; F_fraction (Homo sapiens [4]): 0.76; Fg (Homo sapiens [5]): 0.83 |
| COC(=O)C1=C(C)NC(C)=C(C(=O)OCCN(C)Cc2ccccc2)C1c1cccc([N+](=O)[O-])c1 (stereo not given) [NICARDIPINE] | – | – | – | 1 | – |
| O=C1NCC2(CCN(CCc3ccccc3)CC2)O1 [FENSPIRIDE] | 1.8 | – | 0.8 | 3 | – |
| Nc1ccc(S(=O)(=O)Nc2ncccn2)cc1 [SULFADIAZINE] | 0.3 | 0.99 | 0.2 | – | Fa (Homo sapiens [3]): 0.85; F_fraction (Homo sapiens [4]): 0.85; Fg (Homo sapiens [5]): 1.01 |
| CCCCNC(=O)NS(=O)(=O)c1ccc(C)cc1 [TOLBUTAMIDE] | 0.0002 | 0.99 | – | – | – |
| CN1C(C(=O)Nc2ccccn2)=C(O)c2sccc2S1(=O)=O [TENOXICAM] | 0.0003 | 1 | 0.0297 | – | Fa (Homo sapiens [3]): 1; F_fraction (Homo sapiens [4]): 1; Fg (Homo sapiens [5]): 1 |
| O=C(O)Cc1ccccc1Nc1c(Cl)cccc1Cl [DICLOFENAC] | 0.035 | 0.85 | 3.5 | – | – |
| O=C(O)c1cn(C2CC2)c2cc(N3CCNCC3)c(F)cc2c1=O [CIPROFLOXACIN] | – | 0.94 | – | – | Fa (Homo sapiens [3]): 0.75; Fg (Homo sapiens [5]): 0.98 |
| CC(C)(C)NC(=O)[C@@H]1C[C@@H]2CCCC[C@@H]2CN1C[C@@H](O)[C@H](Cc1ccccc1)NC(=O)[C@H](CC(N)=O)NC(=O)c1ccc2ccccc2n1 | – | 0.45 | – | – | – |
| O=C(O)c1cc(/N=N/c2ccc(S(=O)(=O)Nc3ccccn3)cc2)ccc1O [SULFASALAZINE] | 0.1 | – | 0.2 | – | clearance (clinical [7]): 0.24 mL/min/kg |
| CCCc1nc2c(C)cc(-c3nc4ccccc4n3C)cc2n1Cc1ccc(-c2ccccc2C(=O)O)cc1 | 0.1 | – | 8.3 | – | F_fraction (Homo sapiens [4]): 0.43 |
| Nc1ccc(S(=O)(=O)c2ccc(N)cc2)cc1 [DAPSONE] | – | 0.98 | 0.4 | – | – |
| CNCCCN1c2ccccc2CCc2ccccc21 [DESIPRAMINE] | – | 0.53 | – | – | F_fraction (Homo sapiens [4]): 0.4 |
| Cc1onc(-c2ccccc2Cl)c1C(=O)N[C@@H]1C(=O)N2[C@@H]1SC(C)(C)[C@@H]2C(=O)O [CLOXACILLIN] | 1 | – | 0.6 | – | clearance (clinical [7]): 1.6 mL/min/kg |
